According to patent US20130165368A1, “ANTIMICROBIAL COMPOUNDS” (priority 2010, published 2013):
≈ marks a conversion by molar mass, not a printed value. Like-named read-outs stand apart in the source and are kept apart here.

How the values were obtained:
Format in all cases: cell-based
Candida albicans = experiment: MIC agar dilution, micro-organism 19 (90028); conditions: Candida albicans 90028
Outline: (§1)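 Twofold dilutions of compound emulsions in water were set in Isosensitest agar with Brazier's CCEY medium, egg yolk and lysed horse blood. Spots of 1 µL from 0.5 McFarland suspensions diluted 1/15 were incubated aerobically at 37 °C and read at 22 and 48 h. MIC (mmol/L) was the lowest concentration giving <10 colonies.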

Enterococcus faecalis = experiment: MIC agar dilution, micro-organism 17 (775); conditions: Enterococcus faecalis 775
Outline: as §1

Bacillus subtilis = experiment: MIC agar dilution, micro-organism 18 (9372); conditions: Bacillus subtilis 9372
Outline: as §1

Candida glabrata = experiment: MIC agar dilution, micro-organism 20 (3943); conditions: Candida glabrata 3943
Outline: as §1

MRSA EMRSA 15 21698/98 = experiment: MIC agar dilution, MRSA strain 41; conditions: Staphylococcus aureus
Procedure: (§2) Molar equivalent concentrations were used to allow comparison between compounds of differing molecular mass. Due to weighing difficulties, any compound in solid form was melted in a water bath prior to dilution. To make ten-times strength concentrations, which takes into account agar dilution, 0.0352 mmol of each compound was weighed into plastic universal bottles and 4 mL of sterile distilled water (SDW) was added. To produce a homogenous emulsion the universals were vortexed; once achieved the emulsions were serial diluted by adding 2 mL to 2 mL of SDW.
(§3) For every 100 mL of Isosensitest agar (IST) (CM0471; Oxoid, Basingstoke, England), 3.1 g of the IST powder was added to 100 mL SDW (as per manufacturer's instructions) and sterilised for 15 minutes at 121° C. Once sterilised, the molten agar was cooled to 50° C. in a water-bath. Subsequently 4.8 g of CCEY powder (BC2160; Bioconnections, Wetherby, England), also known as Brazier's medium, was added to 100 mL SDW for every 100 mL of agar needed. This was then sterilised for 15 minutes at 121° C. Once sterilised the molten agar was cooled to 50° C. in a water-bath and 4 mL of egg-yolk emulsion (S2073; TCS Biosciences Ltd, Buckingham, United Kingdom) and 1 mL of lysed defibrinated horse blood (HB035; TCS Biosciences Ltd, Buckingham, United Kingdom) were also added for every 100 mL needed. Horse blood lysis is achieved by dilution to half concentration with SDW; when fully lysed the mixture will turn dark red in colour.
(§4) 18 mL agar was added to each universal and then poured into sterile Petri dishes. This step creates a 1/10 dilution resulting in agar plates of the required strength. Control plates for each set of strains were created by adding 18 mL of agar to 2 mL of SDW.
(§5) Suspensions of each bacterial species were prepared with a density equal to that of a 0.5 McFarland standard using a densitometer. All suspensions were made using sterile distilled water and fresh 18-20 hour cultures. As a 0.5 McFarland standard contains 1.5×10^8 CFU/mL and the multipoint inoculators applies 1 μL spots of liquid, each bacterial suspension was diluted 1/15 (20 μL suspension to 280 μL sterile distilled water).
(§6) Bacterial suspensions were prepared from fresh 18-24 hour cultures as previously described. 1 μL of each strain was inoculated onto all 100 agar plates containing a different chemical concentration and the 2 control plates. This was done using a multipoint inoculator which inoculates 20 strains per plate. All plates were incubated for 22 hours at 37° C. in aerobic conditions.
(§7) Each plate was examined for bacterial growth after 22 and 48 hours, with each being incubated in between examinations. A positive result was recorded as growth of ≧10 colonies. A negative result was recorded as growth of <10 colonies as this is equivalent to 99.9% inhibition. The lowest concentration of chemical that inhibited growth was recorded as the MIC. The results are recorded in Table IV below, where the numbers are quoted in mmol/L.
(§8) Given the positive performance of the ethoxylates of lauryl alcohol in reducing the MIC for a number of the micro-organisms tested, further MIC testing of Laureth-1 [C12E1] through to Laureth-8 [C12E8] was conducted on each of the following: • 10 strains of vancomycin-resistant enterococci (VRE)—listed in Table V below; and • 20 strains of methicillin-resistant Staphylococcus aureus (MRSA)—listed in Table VI.
(§9) The alkanol, alkanol derivatives, agar plates, and inocula were all prepared in the same way as described above.
(§10) The plates were examined in the same manner as described above and the results are recorded in Table VII below, where the numbers are quoted in mmol/L.

[1] = test system: Enterococcus faecium (VRE) MB310; experiment: MIC agar dilution, VRE strain 29
Procedure: as §2, §3, §4, §5, §6, §7, §8, §9, §10

[2] = test system: Enterococcus faecium (VRE) 12185 Clin waste; experiment: MIC agar dilution, VRE strain 24
Procedure: as §2, §3, §4, §5, §6, §7, §8, §9, §10

MRSA FIN 54511 (E6) = experiment: MIC agar dilution, MRSA strain 32; conditions: Staphylococcus aureus
Procedure: as §2, §3, §4, §5, §6, §7, §8, §9, §10

MRSA EMRSA 15 19972/98 = experiment: MIC agar dilution, MRSA strain 39; conditions: Staphylococcus aureus
Procedure: as §2, §3, §4, §5, §6, §7, §8, §9, §10

[3] = test system: MRSA GER 131/98 (Sger Iidc); experiment: MIC agar dilution, MRSA strain 35; conditions: Staphylococcus aureus
Procedure: as §2, §3, §4, §5, §6, §7, §8, §9, §10

[4] = test system: Enterococcus faecium (VRE) MB 305; experiment: MIC agar dilution, VRE strain 25
Procedure: as §2, §3, §4, §5, §6, §7, §8, §9, §10

MRSA EMRSA 16 21354/95 = experiment: MIC agar dilution, MRSA strain 44; conditions: Staphylococcus aureus
Procedure: as §2, §3, §4, §5, §6, §7, §8, §9, §10

MRSA EMRSA 16 07924/95 = experiment: MIC agar dilution, MRSA strain 49; conditions: Staphylococcus aureus
Procedure: as §2, §3, §4, §5, §6, §7, §8, §9, §10

[5] = Nakaseomyces glabratus, 22 h, 22 hrs, read-out: MIC
[6] = Nakaseomyces glabratus, 48 h, 48 hrs, read-out: MIC

| MIC (Candida albicans; 22 hrs, read-out: MIC) [µM] | MIC (Candida albicans; 48 hrs, read-out: MIC) [µM] | MIC (Enterococcus faecalis; 22 hrs, read-out: MIC) [µM] | MIC (Enterococcus faecalis; 48 hrs, read-out: MIC) [µM] | MIC (Bacillus subtilis; 22 hrs, read-out: MIC) [µM] | MIC (Bacillus subtilis; 48 hrs, read-out: MIC) [µM] | MIC (Candida glabrata; [5]) [µM] | MIC (Candida glabrata; [6]) [µM] | Structure (SMILES) | MIC (MRSA EMRSA 15 21698/98; 22 hrs) [µM] | MIC (MRSA EMRSA 15 21698/98; 48 hrs) [µM] | MIC ([1]; 22 hrs) [µM] | MIC ([1]; 48 hrs) [µM] | MIC ([2]; 22 hrs) [µM] | MIC ([2]; 48 hrs) [µM] | MIC (MRSA FIN 54511 (E6); 22 hrs) [µM] | MIC (MRSA FIN 54511 (E6); 48 hrs) [µM] | MIC (MRSA EMRSA 15 19972/98; 22 hrs) [µM] | MIC (MRSA EMRSA 15 19972/98; 48 hrs) [µM] | MIC ([3]; 22 hrs) [µM] | MIC ([3]; 48 hrs) [µM] | also measured |
| --- | --- | --- | --- | --- | --- | --- | --- | --- | --- | --- | --- | --- | --- | --- | --- | --- | --- | --- | --- | --- | --- |
| > 880 | > 880 | > 880 | > 880 | > 880 | > 880 | 880 (≈ 213 µg/mL) | > 880 | CCCCCCCCCCCCCCCCO [C0, 1-Hexadecanol, reference compound] | – | – | – | – | – | – | – | – | – | – | – | – | – |
| – | – | – | – | – | – | – | – | CCCCCCCCCCCCCOCCOCCOCCOCCOCCOCCO [C13E6, polyoxyethylene (6) tridecyl alcohol] | – | – | – | – | – | – | – | – | – | – | – | – | MIC (Candida albicans; 22 hrs): >880 µM; MIC (Candida albicans; 48 hrs): >880 µM; MIC (Enterococcus faecalis; 22 hrs): 110 µM (≈ 51.1 µg/mL); MIC (Enterococcus faecalis; 48 hrs): 110 µM (≈ 51.1 µg/mL); MIC (Bacillus subtilis; 22 hrs): 110 µM (≈ 51.1 µg/mL); MIC (Bacillus subtilis; 48 hrs): 110 µM (≈ 51.1 µg/mL); MIC (Candida glabrata; 22 hrs): >880 µM; MIC (Candida glabrata; 48 hrs): >880 µM |
| 220 (≈ 60.4 µg/mL) | 220 (≈ 60.4 µg/mL) | 220 (≈ 60.4 µg/mL) | 220 (≈ 60.4 µg/mL) | 110 (≈ 30.2 µg/mL) | 220 (≈ 60.4 µg/mL) | 110 (≈ 30.2 µg/mL) | 110 (≈ 30.2 µg/mL) | CCCCCCCCCCCCOCCOCCO [L2, Diethylene Glycol Monododecyl Ether] | 110 (≈ 30.2 µg/mL) | 110 (≈ 30.2 µg/mL) | 880 (≈ 242 µg/mL) | 880 (≈ 242 µg/mL) | > 880 | > 880 | 110 (≈ 30.2 µg/mL) | 110 (≈ 30.2 µg/mL) | 110 (≈ 30.2 µg/mL) | 110 (≈ 30.2 µg/mL) | 220 (≈ 60.4 µg/mL) | 220 (≈ 60.4 µg/mL) | MIC ([4]; 22 hrs): 880 µM (≈ 242 µg/mL); MIC ([4]; 48 hrs): 880 µM (≈ 242 µg/mL); MIC (MRSA EMRSA 16 21354/95; 22 hrs): 110 µM (≈ 30.2 µg/mL); MIC (MRSA EMRSA 16 21354/95; 48 hrs): 110 µM (≈ 30.2 µg/mL); MIC (MRSA EMRSA 16 07924/95; 22 hrs): 110 µM (≈ 30.2 µg/mL); MIC (MRSA EMRSA 16 07924/95; 48 hrs): 110 µM (≈ 30.2 µg/mL) |

| Structure (SMILES) | MIC (Candida albicans; 22 hrs, read-out: MIC) [µM] | MIC (Candida albicans; 48 hrs, read-out: MIC) [µM] | MIC (Enterococcus faecalis; 22 hrs, read-out: MIC) [µM] | MIC (Enterococcus faecalis; 48 hrs, read-out: MIC) [µM] | MIC (Bacillus subtilis; 22 hrs, read-out: MIC) [µM] | MIC (Bacillus subtilis; 48 hrs, read-out: MIC) [µM] | MIC (Candida glabrata; [5]) [µM] | MIC (Candida glabrata; [6]) [µM] | MIC (MRSA EMRSA 15 21698/98; 22 hrs) [µM] | MIC (MRSA EMRSA 15 21698/98; 48 hrs) [µM] | MIC ([1]; 22 hrs) [µM] | MIC ([1]; 48 hrs) [µM] | MIC ([2]; 22 hrs) [µM] | MIC ([2]; 48 hrs) [µM] | MIC (MRSA FIN 54511 (E6); 22 hrs) [µM] | MIC (MRSA FIN 54511 (E6); 48 hrs) [µM] | MIC (MRSA EMRSA 15 19972/98; 22 hrs) [µM] | MIC (MRSA EMRSA 15 19972/98; 48 hrs) [µM] | MIC ([3]; 22 hrs) [µM] | MIC ([3]; 48 hrs) [µM] | also measured |
| --- | --- | --- | --- | --- | --- | --- | --- | --- | --- | --- | --- | --- | --- | --- | --- | --- | --- | --- | --- | --- | --- |
| CCCCCCCCCCCCOCCO [L1, Ethylene Glycol Monododecyl Ether] | 440 (≈ 101 µg/mL) | 440 (≈ 101 µg/mL) | 440 (≈ 101 µg/mL) | 440 (≈ 101 µg/mL) | 440 (≈ 101 µg/mL) | 440 (≈ 101 µg/mL) | 220 (≈ 50.7 µg/mL) | 220 (≈ 50.7 µg/mL) | 220 (≈ 50.7 µg/mL) | 220 (≈ 50.7 µg/mL) | 440 (≈ 101 µg/mL) | 440 (≈ 101 µg/mL) | 880 (≈ 203 µg/mL) | 880 (≈ 203 µg/mL) | 220 (≈ 50.7 µg/mL) | 220 (≈ 50.7 µg/mL) | 220 (≈ 50.7 µg/mL) | 220 (≈ 50.7 µg/mL) | 220 (≈ 50.7 µg/mL) | 220 (≈ 50.7 µg/mL) | MIC ([4]; 22 hrs): 440 µM (≈ 101 µg/mL); MIC ([4]; 48 hrs): 880 µM (≈ 203 µg/mL); MIC (MRSA EMRSA 16 21354/95; 22 hrs): 220 µM (≈ 50.7 µg/mL); MIC (MRSA EMRSA 16 21354/95; 48 hrs): 220 µM (≈ 50.7 µg/mL); MIC (MRSA EMRSA 16 07924/95; 22 hrs): 220 µM (≈ 50.7 µg/mL); MIC (MRSA EMRSA 16 07924/95; 48 hrs): 220 µM (≈ 50.7 µg/mL) |
